Results from patent publication US10143696B2, “Methods and compositions for decreasing gastric emptying” (priority 2015, dated 2018).
Entries after “also recorded” stand apart in the source; their conditions may differ. Where two headings read alike, the source gives them in different places.

Columns and labels:
cynomolgus monkeys = assay type: in vivo
Experimental: Studies in cynomolgous monkeys were conducted by Battelle (Columbus, Ohio). Eleven monkeys, seven males and four females that had been previously received, quarantined, and acclimated and were naïve (females), or had not been used on other studies for a minimum of 6 months (males), were utilized. Prior to use on study, monkeys were acclimated to chair restraint for up to 2 hours. Chair restraint was used to facilitate dose administration and blood collection. Animals were individually housed in stainless steel cages. Monkeys were offered a certified diet twice daily and had access to fresh water ad libitum. The animals also were supplemented with fresh fruits and/or fresh vegetables. Monkeys were fasted overnight prior to dose administration.
Observations for moribundity and mortality were performed on all animals twice daily throughout the duration of the study. Cage-side clinical observations were recorded for all animals prior to dose administration and at the times of blood collection.
As such, a pharmacokinetic and observational study was conducted in cynomologous monkeys (FIG. 16). Plasma concentrations of Compound A were measured following a single oral dose of 10, 50 and 100 mg/kg up to 24 hours post-dosing (FIGS. 16A, B and C).

Sprague-Dawley rats [1] = assay: Gastric emptying of a test meal in rats; assay type: in vivo, rat
Experimental: Rats were fasted overnight (16-18 hours) with free access to water. The next morning, compound was administered and animals were individually housed in bedding-free cages with pre-weighed food available ad libitum and access to water for 2 hours. The water and food were then removed and the remaining food was re-weighed. Gastric emptying of the ingested meal was assessed 4 hours later. Animals were euthanized by CO2 inhalation followed by thoracotomy. The abdominal cavity was opened, the pylorus and cardia were clamped and the stomach was removed. The excised stomach was weighed and then opened along the greater curvature, rinsed with tap water, lightly dried and re-weighed. The amount of food in the stomach (grams) was estimated based on the difference between the total weight of the stomach plus its contents and the weight of the stomach after the contents were removed. The meal ingested (food intake) was determined by the difference between pre- and post-feeding weight at the end of the 2 hour period. Gastric emptying during the 4 hour experiment is represented as: Gastric emptying=[1−(gastric content/food intake)]×100. Gastric Secretion
Male, Sprague-Dawley rats (weighing between 229-264 g each and 4 rats per test group) were fasted overnight (19 hours). The rats were then orally administered 10 mg/kg, 30 mg/kg or 100 mg/kg of Compound A with a 0.5% MC or Capryol:Solutol:Polyethyleneglycol (CSP) vehicle or with a 0.5% MC or CSP vehicle alone. The rats were then placed in individual, bedding-free cages and allowed ad libitium access to pre-weighed food and water for two hours. The food and water were then removed and the food was reweighed. Gastric emptying was then assessed four hours later by euthanizing the rats and analyzing the stomach and stomach contents. […] Data are represented as the means+the standard error of the means (S.E.M). % Gastric Emptying in 4 hours=(1−(gastric content/food intake))×100. […] Data are represented as the means+S.E.M.
Male, Sprague-Dawley rats (weighing between 235-268 g each and 4-6 rats per test group) were fasted overnight (19 hours). The rats were then subcutaneously administered 10 mg/kg, 30 mg/kg or 100 mg/kg of carbamazepine (Compound B) with a 25% HPBCD vehicle or with a 25% HPBCD vehicle alone. Some test animals were not dosed (i.e., naïve). The rats were then placed in individual, bedding-free cages and allowed ad libitium access to pre-weighed food and water for two hours. The food and water were then removed and the food was reweighed. […] Data are represented as the means+S.E.M. % Gastric Emptying in 4 hours=(1−(gastric content/food intake))×100.
Male, Sprague-Dawley rats (weighing between 238-274 g each and 6 rats per test group) were fasted overnight (19 hours). The rats were then orally administered 30 mg/kg, 100 mg/kg or 300 mg/kg of carbamazepine (Compound B) with a 0.5% MC vehicle or with a 0.5% MC vehicle alone. The rats were then placed in individual, bedding-free cages and allowed ad libitium access to pre-weighed food and water for two hours. The food and water were then removed and the food was reweighed. […] Data are represented as the means+S.E.M. % Gastric Emptying in 4 hours=(1−(gastric content/food intake))×100.
Male, Sprague-Dawley rats (weighing between 235-276 g each and 4-6 rats per test group) were fasted overnight (19 hours).

Sprague-Dawley rats [2] = assay: Gastrointestinal transit, charcoal meal assay; assay type: in vivo, rat
Experimental: Small intestinal transit was measured based on a known method which involved the oral administration of a charcoal meal (Gmerek et al. (1986). “Independent central and peripheral mediation of morphine-induced inhibition of gastrointestinal transit in rats.” J Pharmacol Exp Ther 236(1): 8-13). Rats were fasted with free access to water for 18 hours. Test compound or vehicle was dosed prior to oral administration of a charcoal slurry containing activated charcoal, flour and water in a ratio of 1:2:7.5 (10 ml/kg orally). One hour after receiving the charcoal slurry, rats were euthanized by CO2 asphyxiation. The stomach and GI tract was excised from each animal. Whole stomach weight was recorded and the length of the small intestine (cm) (stomach to cecum) and the distance (cm) to the leading edge of charcoal was measured. Small intestinal transit data are expressed as a percentage of the distance traveled (i.e. % small intestinal transit=(distance charcoal traveled)/(total length of small intestine (stomach to cecum)×100). Pretreatment times were determined on the basis of pharmacokinetic data (not shown) and were as follows: Compound A, 60 minutes, Compound C, 60 minutes; carbamazepine, 60 minutes. Morphine was administered with a pretreatment time of 30 mins based on previous experience.

[3] = individual monkey presenting the highest plasma levels
[4] = monkey, p.o. 100 mg/kg, animals affected/animals dosed, 100 mg/kg
[5] = naïve rats, p.o. 100 mg/kg, 0.5% MC (Example 13)
[6] = p.o. 10, 30, 100 mg/kg, 0.5% MC or CSP vehicle (Example 1)

For `C[C@H](Nc1cc(C(N)=O)nc(-c2ccc(Oc3ccc(OC(F)(F)F)cc3)cc2)n1)C(N)=O` [Compound A], the “food intake after 24 hrs post-dosing” value (cynomolgus monkeys; [3]) was “reduced food intake for at least two additional days post dosing”, the “food intake and feces production up to 24 hrs post-dosing” value (cynomolgus monkeys; [3]) was “zero food intake and zero feces production” and the “food consumption or feces production” value (cynomolgus monkeys; monkey, p.o. 10 mg/kg) was “no treatment related-effect was discernable”. For the same compound, the “Clinical Observations (frequency): Diarrhea” value (cynomolgus monkeys; monkey, p.o. 10 mg/kg, animals affected/animals dosed, 10 mg/kg) was 2 out of the 3 and (2/3), the “Clinical Observations (frequency): Distended/Bloated Abdomen” value (cynomolgus monkeys; monkey, p.o. 50 mg/kg, animals affected/animals dosed, 50 mg/kg) was 2 out of 4 and Abdomen (2/4) and the “Clinical Observations (frequency): Distended/Bloated Abdomen” value (cynomolgus monkeys; [4]) was 2 out of 4 and Abdomen (2/4). The “Clinical Observations (frequency): Low Food Consumption” value (cynomolgus monkeys; [4]) was 2 out of the 4 and Consumption (2/4), the “% Gastric Emptying in 4 hours” value (Sprague-Dawley rats [1]; Compound A 3 mg/kg s.c. alone, 25% HPBCD (Examples 11, 12), 3 mg/kg) was “inhibits the percent of gastric emptying independently” and the gastric emptying (Sprague-Dawley rats [1]; administered subcutaneously (Example 9)) was “decrease in gastric emptying”. For the same compound, the “gastric emptying inhibition potency of Compound A with a CSP vehicle compared to Compound D in 25% HPBCD” value (Sprague-Dawley rats [1]; all dosages tested) was “maintains a greater gastric emptying inhibition potency as compared to Compound D”, the “gastric emptying inhibition potency compared between compounds” value (Sprague-Dawley rats [1]; comparison at equal or similar dosages, routes and vehicles) was “greater gastric emptying inhibition potency than Compound B; also recorded: greater gastric emptying inhibition potency when compared to Compound B; also recorded: greater gastric emptying inhibition potency at lower dosages; also recorded: highest in vivo potency” and the gastric emptying (Sprague-Dawley rats [1]; lowest dose tested orally, 10 mg/kg) was ~0%. The “% Gastric Emptying in 4 hours” value (Sprague-Dawley rats [1]; [5]) was “statistically significant decrease in gastric emptying”, the stomach weight (Sprague-Dawley rats [1]; [5]) was “increase in stomach weight” and the “% Gastric Emptying in 4 hours” value (Sprague-Dawley rats [1]; [6]) was “increased inhibition of gastric emptying”. The stomach weight (Sprague-Dawley rats [1]; [6]) was “increased stomach weight”, the “gastric emptying inhibition and stomach weight increase, CSP vehicle compared to 0.5% MC vehicle” value (Sprague-Dawley rats [1]; p.o. 10-100 mg/kg (Example 1)) was “greater inhibiting effect on gastric emptying and stomach weight increase was observed with a CSP vehicle” and the food intake (Sprague-Dawley rats [1]; rat, in vivo) was “decreased food intake”. The stomach weight (Sprague-Dawley rats [1]; rat, in vivo) was “increased stomach weight”, the “stomach weight and food intake” value (Sprague-Dawley rats [1]; rat, in vivo) was “comparable to that of Compound A alone” and the “increase in potency on gastric emptying, subcutaneous as compared to oral administration” value (Sprague-Dawley rats [1]; s.c. vs p.o.) was 3-10 fold. The food intake (Sprague-Dawley rats [1]; vagotomized and naïve rats, p.o. 100 mg/kg (Example 13)) was “Food intake is inhibited”, the stomach weight (Sprague-Dawley rats [1]; vagotomized rats, p.o. 100 mg/kg, 0.5% MC, vs vagotomy alone (Example 13)) was “not statically significantly different from vagotomy alone” and the “% Gastric Emptying in 4 hours” value (Sprague-Dawley rats [1]; vagotomized rats, p.o. 100 mg/kg, 0.5% MC, vs vagotomy alone (Example 13), 100 mg/kg) was “numerically additive effect on the inhibition of gastric emptying but not a statistically significant effect; also recorded: not statically significantly different from vagotomy alone”. For the same compound, the “dosage level with significant effect on stomach weight” value (Sprague-Dawley rats [2]; charcoal meal assay) was 100 mg/kg, the stomach weight (Sprague-Dawley rats [2]; charcoal meal assay, vs vehicle treated animals) was “statistically significant increase in stomach weight” and the “gastrointestinal transit (% small intestinal transit)” value (Sprague-Dawley rats [2]; charcoal meal, 60 minutes pretreatment, vs vehicle) was “No statistically significant decrease in gastrointestinal transit”.
